Data set [1] has as its system HTLV-IIIB infected MT-4 cells. Description: Inhibition of cytopathic effect of HIV on infected MT-4 cells (viable cell count). Format: cell-based. The following applies: Human immunodeficiency virus 1, IIIB, MT4; HIV-infected MT-4 cells, 3 or 6 days (Figure 1); read-out: concentration affording virtually complete protection of MT-4 cells. On the procedure: The cell line MT-4 disclosed by Harada, S. et al., in Virology, Vol. 146, pp. 272-281 (1985) is appropriate. This cell line features rapid and efficient replication of HTLV-III, followed by cytolysis.
(§1) MT-4 cells are maintained at 37°C in the complete medium. Two days before the start of an experiment, viable cells are counted by the trypan blue dye exclusion method and the concentration is adjusted to 30 x 10⁴ cells/mL.
Infection of the MT-4 cells with the virus is made at a multiplicity of infection (MOI) of 0.002. MT-4 cells (60 x 10⁴ cells/mL) are mixed with a 1:100 dilution of the viral preparation and incubated for 1 hour at 37°C for adsorption of the virus. After adsorption, HTLV-IIIB infected MT-4 cells are washed once and resuspended with complete medium. […]
The test substance is dissolved in dimethylsulfoxide (DMSO) and the solutions are then diluted with complete medium to concentrations of 10, 5.0, 2.5, and 1.25 mcg/ml to provide test solutions. […] To measure anti-HIV activity, the number of viable cells surviving in the test medium are counted by the trypan blue dye-exclusion method on day 3 and day 6 after infection of the cells. […]
A general note: Damage to the host cells serves as the signal in cytopathic effect assays.

The nature of data set [2]: Cytotoxicity on uninfected MT-4 cells (viable cell count, trypan blue dye exclusion). Format: cell-based. The settings on record: human. On the procedure:
as §1
The test substance is dissolved in dimethylsulfoxide (DMSO) and the solutions are then diluted with complete medium to concentrations of 10, 5.0, 2.5, and 1.25 mcg/ml to provide test solutions. Matched portions of HTLV-IIIB infected and uninfected MOLT-4 cells are adjusted to 60 x 10⁴ cells/mL and mixed with the same volume of diluted test solution to make the final concentration of 30 x 10⁴ cells/mL, and 5.0, 2.5, […], and 0.63 mcg/mL of test substance. To measure anti-HIV activity, the number of viable cells surviving in the test medium are counted by the trypan blue dye-exclusion method on day 3 and day 6 after infection of the cells.
Figure 1 illustrates the inhibition of cytopathic effect of the HIV virus on MT-4 cells by Compound No. 28567. First, the unshaded bars show the lack of cytotoxicity of the compound on uninfected MT-4 cells. Only at concentrations of 28567 in excess of 30 µg/ml is a noticeable or consistent reduction in the number of cells observed after 3 or 6 days, and even at 120 mg/ml, 60-70% of the cells survive.

Data set [3] relates to MOLT-4 and MOLT-4/HTLV-IIIB. Description: Cell fusion / giant cell formation in MOLT-4 and MOLT-4/HTLV-IIIB co-culture (cell size distribution). The settings on record: 25 µg/ml in medium, mixed culture; 11.8% without compound. Format: cell-based. As for the experimental part: The effect on cell fusion which results in cell to cell infection and giant cell formation may be examined as follows. MOLT-4 and its virus-producing cell, MOLT-4/HTLV-IIIB are mixed in 1:1 in proportion of cell number and adjusted to a final concentration of 5 x 10⁵ cells/ml with the medium containing various concentrations of compounds, and then incubated for 10 hours in a CO₂ incubator. After incubation, the distribution of cell size is measured by a cell multisizer (Coulter Electronics Ltd., Luton, England). Viable cells are counted by trypan blue dye exclusion method. Giant cell formation is observed under a phase- contrast microscope. Particles with diameters of from 3 to 100 µm in diameter are observed in the co-cultures. Only those particles having a diameter of more than 9 µm are considered to be cells. Cell sizes in each of the cultures of MOLT-4 or MOLT-4/HTLV-IIIB are similar, and the proportion of cell particles with 12-14 µm diameters are virtually the same in each culture. The percentage of cell particles having more than a 20 µm diameter was 2.7% and in the MOLT-4 cell culture, and 2.4% in the MOLT-4/HTLV-IIIB cell culture. […] This is a reflection of the infectivity by cell-to-cell fusion of the MOLT-4/HTLV-IIIB cells for the uninfected MOLT-4 cells. The test method measures the ability of test substances to prevent or reduce this effect. […]

The nature of data set [4]: Acute toxicity in mice after single intravenous and intramuscular administrations. The settings on record: mouse, in vivo. As for the experimental part: The acute toxicity of Compound No. 28567 was determined in mice after single intravenous and intramuscular administrations.

Regarding `CN[C@@H]1[C@H](O[C@@H]2OC[C@@H](O)[C@H](O)[C@H]2O)[C@@H](O)[C@H](O[C@H]2c3cc(C)c(C(=O)N[C@H](C)C(=O)O)c(O)c3-c3c(cc4c(c3O)C(=O)c3cc(OC)cc(O)c3C4=O)[C@@H]2O)O[C@@H]1C` [Compound No. 28567], the minimal effective concentration in data set [1] was not below 3.5 µg/mL. In addition, the MCC in data set [2] (after 3 or 6 days (Figure 1), read-out: concentration at which a noticeable or consistent reduction in the number of cells is observed) is more than 30 µg/mL. Further, the viability in data set [2] (at 120 mg/ml (so in the source), 3 or 6 days, read-out: cells survive) was 60 to 70%. Also, in data set [3], the “proportion of particles exceeding 20 µm” value is listed as 2.7%. The sign of toxicity result in data set [4] (400 mg/kg) was “no sign of toxicity”. Besides, the LD50 in data set [4] (iv, read-out: LD₅₀) turned out to be 140 mg/kg.

The record behind these values is patent EP0351625B1, “Anti-HIV activity of BV-3608” (Bristol-Myers Squibb Company, priority 1988, dated 1990).
